Measurements: patent publication US20250195502A1, “APPLICATION OF TETRACYCLIC COMPOUND IN TREATMENT OF TUMORS” (SHANGHAI SHIJIANG BIOTECHNOLOGY CO., LTD, priority 2022, published 2025)

Tested on: NCI-H82 (human small cell lung cancer cell)
Experiment: Cell viability assay (Promega CellTiter-Glo), inhibitory effect on NCI-H82
Assay type: cell-based
Conditions: 72 h, 3 days of culture
Method in brief: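 After 3 days of culture with graded compound doses, ATP-based luminescence (CellTiter-Glo) gave the viability of human small cell lung cancer NCI-H82 cells, maintained in 10% FBS-containing RPMI1640. IC50 is the 50% inhibiting concentration.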

Row | Compound | IC50
1 | COc1ccc2cc3[n+](cc2c1OCCCCCCBr)CCc1cc2c(cc1-3)OCO2 [compound AB31787] | 340 nM
2 | COc1ccc2c(Cc3ccc(OC(F)(F)F)cc3)c3[n+](cc2c1OC)CCc1cc2c(cc1-3)OCO2 [compound AB31788] | 710 nM
3 | COc1ccc2c(Cc3ccc(C(C)C)cc3)c3[n+](cc2c1OC)CCc1cc2c(cc1-3)OCO2 [compound AB31789] | 300 nM

Tested on: SW48 (human colon adenocarcinoma cell)
Experiment: Cell viability assay (Promega CellTiter-Glo), inhibitory effect on SW48
Assay type: cell-based
Conditions: 72 h, 3 days of culture
Method in brief: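 IC50 derived from CellTiter-Glo ATP luminescence after 3-day culture with a compound dilution series; cells kept in Leibovitz's L-15 plus 10% fetal bovine serum.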

Row | Compound | IC50
4 | COc1ccc2cc3[n+](cc2c1OCCCCCCBr)CCc1cc2c(cc1-3)OCO2 [compound AB31787] | 480 nM
5 | COc1ccc2c(Cc3ccc(OC(F)(F)F)cc3)c3[n+](cc2c1OC)CCc1cc2c(cc1-3)OCO2 [compound AB31788] | 690 nM
6 | COc1ccc2c(Cc3ccc(C(C)C)cc3)c3[n+](cc2c1OC)CCc1cc2c(cc1-3)OCO2 [compound AB31789] | 560 nM

Tested on: G-401 (human renal carcinoma Wilms cell)
Experiment: Cell viability assay (Promega CellTiter-Glo), inhibitory effect on G-401
Assay type: cell-based
Conditions: 72 h, 3 days of culture
Method in brief: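 IC50 comes from luminescent ATP-based viability measured after 3 days of exposure to serially diluted compound. Cultures were kept in McCoy's 5a medium containing 10% fetal bovine serum.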

Row | Compound | IC50
7 | COc1ccc2cc3[n+](cc2c1OCCCCCCBr)CCc1cc2c(cc1-3)OCO2 [compound AB31787] | 490 nM
8 | COc1ccc2c(Cc3ccc(OC(F)(F)F)cc3)c3[n+](cc2c1OC)CCc1cc2c(cc1-3)OCO2 [compound AB31788] | 630 nM
9 | COc1ccc2c(Cc3ccc(C(C)C)cc3)c3[n+](cc2c1OC)CCc1cc2c(cc1-3)OCO2 [compound AB31789] | 260 nM

Tested on: MDA-MB-453 (breast cancer cell)
Experiment: Cell viability assay (Promega CellTiter-Glo), inhibitory effect on MDA-MB-453
Assay type: cell-based
Conditions: Homo sapiens, 72 h, 3 days of culture
Method in brief: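 IC50 comes from ATP-based CellTiter-Glo viability measured after 3 days of exposure to graded compound concentrations. Cultures were kept in L-15 medium containing 10% fetal bovine serum.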

Row | Compound | IC50
10 | COc1ccc2cc3[n+](cc2c1OCCCCCCBr)CCc1cc2c(cc1-3)OCO2 [compound AB31787] | 280 nM
11 | COc1ccc2c(Cc3ccc(OC(F)(F)F)cc3)c3[n+](cc2c1OC)CCc1cc2c(cc1-3)OCO2 [compound AB31788] | 1030 nM
12 | COc1ccc2c(Cc3ccc(C(C)C)cc3)c3[n+](cc2c1OC)CCc1cc2c(cc1-3)OCO2 [compound AB31789] | 310 nM

Tested on: CFPAC-1 (human pancreatic cancer cell)
Experiment: Cell viability assay (Promega CellTiter-Glo), inhibitory effect on CFPAC-1
Assay type: cell-based
Conditions: 72 h, 3 days of culture
Method in brief: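 Viability readout via ATP content (CellTiter-Glo) after 3-day exposure to gradient-diluted compounds; IC50 reported. Cells: CFPAC-1, grown in IMDM plus 10% fetal bovine serum.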

Row | Compound | IC50
13 | COc1ccc2cc3[n+](cc2c1OCCCCCCBr)CCc1cc2c(cc1-3)OCO2 [compound AB31787] | 6630 nM
14 | COc1ccc2c(Cc3ccc(OC(F)(F)F)cc3)c3[n+](cc2c1OC)CCc1cc2c(cc1-3)OCO2 [compound AB31788] | 16800 nM
15 | COc1ccc2c(Cc3ccc(C(C)C)cc3)c3[n+](cc2c1OC)CCc1cc2c(cc1-3)OCO2 [compound AB31789] | 4510 nM

Tested on: 786-O (clear cell renal cell adenocarcinoma cell)
Experiment: Cell viability assay (Promega CellTiter-Glo), inhibitory effect on 786-O
Assay type: cell-based
Conditions: Homo sapiens, 786-0, 72 h, 3 days of culture
Method in brief: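 Cell viability determined from ATP content (CellTiter-Glo) after 3-day exposure to compound dilution series, giving IC50. Cells: 786-O clear cell renal adenocarcinoma line in 10% FBS-containing RPMI1640 (+P/S).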

Row | Compound | IC50
16 | COc1ccc2cc3[n+](cc2c1OCCCCCCBr)CCc1cc2c(cc1-3)OCO2 [compound AB31787] | 4090 nM
17 | COc1ccc2c(Cc3ccc(OC(F)(F)F)cc3)c3[n+](cc2c1OC)CCc1cc2c(cc1-3)OCO2 [compound AB31788] | 10800 nM
18 | COc1ccc2c(Cc3ccc(C(C)C)cc3)c3[n+](cc2c1OC)CCc1cc2c(cc1-3)OCO2 [compound AB31789] | 2980 nM

Tested on: SF126 (human glioblastoma multiforme cell)
Experiment: Cell viability assay (Promega CellTiter-Glo), inhibitory effect on SF126
Assay type: cell-based
Conditions: 72 h, SF-126, 3 days of culture, Table 3, read-out: inhibitory effect on SF-126 (IC50)
Method in brief: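 IC50 reflects 50% loss of CellTiter-Glo ATP signal in SF126 glioblastoma cells. Cells were cultured in 10% FBS-containing EMEM and treated with serially diluted compound for 3 days.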

Row | Compound | IC50
19 | COc1ccc2cc3[n+](cc2c1OCCCCCCBr)CCc1cc2c(cc1-3)OCO2 [compound AB31787] | 4290 nM
20 | COc1ccc2c(Cc3ccc(OC(F)(F)F)cc3)c3[n+](cc2c1OC)CCc1cc2c(cc1-3)OCO2 [compound AB31788] | 10900 nM
21 | COc1ccc2c(Cc3ccc(C(C)C)cc3)c3[n+](cc2c1OC)CCc1cc2c(cc1-3)OCO2 [compound AB31789] | 3770 nM

Same assay, conditions: SF-126, 72 h, SF126, 3 days of culture, Table 4, read-out: inhibitory effect on brain cell line SF126 (IC50)

Row | Compound | IC50
22 | COc1ccc2cc3[n+](cc2c1OCCCCCCBr)CCc1cc2c(cc1-3)OCO2 [compound AB31787] | 4290 nM
23 | COc1ccc2c(Cc3ccc(OC(F)(F)F)cc3)c3[n+](cc2c1OC)CCc1cc2c(cc1-3)OCO2 [compound AB31788] | 10900 nM
24 | COc1ccc2c(Cc3ccc(C(C)C)cc3)c3[n+](cc2c1OC)CCc1cc2c(cc1-3)OCO2 [compound AB31789] | 3770 nM

Tested on: GB-1 (human brain glioblastoma cell)
Experiment: Cell viability assay (Promega CellTiter-Glo), inhibitory effect on GB-1
Assay type: cell-based
Conditions: 72 h, 3 days of culture, Table 3, read-out: inhibitory effect on GB-1 (IC50)
Method in brief: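 Intracellular ATP measured by CellTiter-Glo served as the viability readout for IC50, taken 3 days after adding gradient-diluted compound. Cells were kept in 10% FBS-containing DMEM.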

Row | Compound | IC50
25 | COc1ccc2cc3[n+](cc2c1OCCCCCCBr)CCc1cc2c(cc1-3)OCO2 [compound AB31787] | 4230 nM
26 | COc1ccc2c(Cc3ccc(OC(F)(F)F)cc3)c3[n+](cc2c1OC)CCc1cc2c(cc1-3)OCO2 [compound AB31788] | 16500 nM
27 | COc1ccc2c(Cc3ccc(C(C)C)cc3)c3[n+](cc2c1OC)CCc1cc2c(cc1-3)OCO2 [compound AB31789] | 3220 nM

Same assay, conditions: 72 h, 3 days of culture, Table 4, read-out: inhibitory effect on brain cell line GB-1 (IC50)

Row | Compound | IC50
28 | COc1ccc2cc3[n+](cc2c1OCCCCCCBr)CCc1cc2c(cc1-3)OCO2 [compound AB31787] | 4230 nM
29 | COc1ccc2c(Cc3ccc(OC(F)(F)F)cc3)c3[n+](cc2c1OC)CCc1cc2c(cc1-3)OCO2 [compound AB31788] | 16500 nM
30 | COc1ccc2c(Cc3ccc(C(C)C)cc3)c3[n+](cc2c1OC)CCc1cc2c(cc1-3)OCO2 [compound AB31789] | 3220 nM

Tested on: Kelly (brain neuroblastoma cell)
Experiment: Cell viability assay (Promega CellTiter-Glo), inhibitory effect on Kelly
Assay type: cell-based
Conditions: Homo sapiens, 72 h, 3 days of culture, read-out: inhibitory effect on brain cell line Kelly (IC50)
Method in brief: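 Kelly cells were cultured in RPMI1640 with 10% FBS and 2 mM glutamine, then treated with serially diluted compounds for 3 days. Viability was measured as intracellular ATP by CellTiter-Glo luminescence, and IC50 was derived from the dose-response.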

Row | Compound | IC50
31 | COc1ccc2cc3[n+](cc2c1OCCCCCCBr)CCc1cc2c(cc1-3)OCO2 [compound AB31787] | 690 nM
32 | COc1ccc2c(Cc3ccc(OC(F)(F)F)cc3)c3[n+](cc2c1OC)CCc1cc2c(cc1-3)OCO2 [compound AB31788] | 1300 nM
33 | COc1ccc2c(Cc3ccc(C(C)C)cc3)c3[n+](cc2c1OC)CCc1cc2c(cc1-3)OCO2 [compound AB31789] | 460 nM

Tested on: NB-1 (brain neuroblastoma cell)
Experiment: Cell viability assay (Promega CellTiter-Glo), inhibitory effect on NB-1
Assay type: cell-based
Conditions: Homo sapiens, 72 h, 3 days of culture, read-out: inhibitory effect on brain cell line NB-1 (IC50)
Method in brief: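 NB-1 cells grown in L-15 medium with 10% FBS were exposed to serially diluted compounds for 3 days after passage. Viability was read as intracellular ATP by CellTiter-Glo luminescence. IC50 was taken as the concentration giving 50% inhibition.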

Row | Compound | IC50
34 | COc1ccc2cc3[n+](cc2c1OCCCCCCBr)CCc1cc2c(cc1-3)OCO2 [compound AB31787] | 80 nM
35 | COc1ccc2c(Cc3ccc(OC(F)(F)F)cc3)c3[n+](cc2c1OC)CCc1cc2c(cc1-3)OCO2 [compound AB31788] | 310 nM
36 | COc1ccc2c(Cc3ccc(C(C)C)cc3)c3[n+](cc2c1OC)CCc1cc2c(cc1-3)OCO2 [compound AB31789] | 210 nM

Tested on: D341 Med (cerebellar medulloblastoma cell)
Experiment: Cell viability assay (Promega CellTiter-Glo), inhibitory effect on D341 Med
Assay type: cell-based
Conditions: Homo sapiens, 72 h, 3 days of culture, read-out: inhibitory effect on brain cell line D341 Med (IC50)
Method in brief: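 D341 Med cells grown in EMEM with 20% FBS (+P/S) were treated with serially diluted compounds after passage. Viability after 3 days of culture was read as intracellular ATP by CellTiter-Glo luminescence, and IC50 was derived.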

Row | Compound | IC50
37 | COc1ccc2cc3[n+](cc2c1OCCCCCCBr)CCc1cc2c(cc1-3)OCO2 [compound AB31787] | 330 nM
38 | COc1ccc2c(Cc3ccc(OC(F)(F)F)cc3)c3[n+](cc2c1OC)CCc1cc2c(cc1-3)OCO2 [compound AB31788] | 1880 nM
39 | COc1ccc2c(Cc3ccc(C(C)C)cc3)c3[n+](cc2c1OC)CCc1cc2c(cc1-3)OCO2 [compound AB31789] | 510 nM

Tested on: Con-NCI-H82 cell (NCI-H82 transfected with empty virus vector)
Experiment: Cell viability assay (Promega CellTiter-Glo), inhibitory effect on Con-NCI-H82 cell
Assay type: cell-based
Conditions: Homo sapiens; NCI-H82 transfected with empty virus vector (control); CellTiter-Glo; read-out: inhibitory effect on Con-NCI-H82 (IC50)
Method in brief: (§1)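 Viability measured by CellTiter-Glo in three NCI-H82 variants: empty-vector control, viral NNMT overexpression, and viral shRNA DNMT1 knockdown, each checked by Western blot.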

Row | Compound | IC50
40 | COc1ccc2cc3[n+](cc2c1OCCCCCCBr)CCc1cc2c(cc1-3)OCO2 [compound AB31787] | 340 nM
41 | COc1ccc2c(Cc3ccc(OC(F)(F)F)cc3)c3[n+](cc2c1OC)CCc1cc2c(cc1-3)OCO2 [compound AB31788] | 710 nM
42 | COc1ccc2c(Cc3ccc(C(C)C)cc3)c3[n+](cc2c1OC)CCc1cc2c(cc1-3)OCO2 [compound AB31789] | 300 nM

Tested on: ov-NNMT NCI-H82 cell (NNMT protein-overexpressing NCI-H82)
Experiment: Cell viability assay (Promega CellTiter-Glo), inhibitory effect on ov-NNMT NCI-H82 cell
Assay type: cell-based
Conditions: Homo sapiens
Method in brief: as §1

Row | Compound | IC50
43 | COc1ccc2cc3[n+](cc2c1OCCCCCCBr)CCc1cc2c(cc1-3)OCO2 [compound AB31787] | 880 nM
44 | COc1ccc2c(Cc3ccc(OC(F)(F)F)cc3)c3[n+](cc2c1OC)CCc1cc2c(cc1-3)OCO2 [compound AB31788] | 2420 nM
45 | COc1ccc2c(Cc3ccc(C(C)C)cc3)c3[n+](cc2c1OC)CCc1cc2c(cc1-3)OCO2 [compound AB31789] | 850 nM

Tested on: sh-DNMT1 NCI-H82 cell (DNMT1 knocked down NCI-H82)
Experiment: Cell viability assay (Promega CellTiter-Glo), inhibitory effect on sh-DNMT1 NCI-H82 cell
Assay type: cell-based
Conditions: Homo sapiens, NCI-H82 with DNMT1 knocked down by shRNA
Method in brief: as §1

Row | Compound | IC50
46 | COc1ccc2cc3[n+](cc2c1OCCCCCCBr)CCc1cc2c(cc1-3)OCO2 [compound AB31787] | 1310 nM
47 | COc1ccc2c(Cc3ccc(OC(F)(F)F)cc3)c3[n+](cc2c1OC)CCc1cc2c(cc1-3)OCO2 [compound AB31788] | 2950 nM
48 | COc1ccc2c(Cc3ccc(C(C)C)cc3)c3[n+](cc2c1OC)CCc1cc2c(cc1-3)OCO2 [compound AB31789] | 1050 nM
